By IC50 is commonly meant the concentration at which inhibition is half-maximal. Read a low IC50 as inhibition by little substance.

Nine molecules from US8987256B2, “Oxo-heterocyclic substituted carboxylic acid derivatives and the use thereof” (Bayer Intellectual Property GmbH, priority 2008, dated 2015) can be followed below.

Assay [1] has as its target T1, recombinant guanylate cyclase reporter cell line (Rattus norvegicus, UniProt P20595).
T1 construct: expressed in transfected cells; host or cells: CHO reporter cell line
T1 sequence (P20595 1-619): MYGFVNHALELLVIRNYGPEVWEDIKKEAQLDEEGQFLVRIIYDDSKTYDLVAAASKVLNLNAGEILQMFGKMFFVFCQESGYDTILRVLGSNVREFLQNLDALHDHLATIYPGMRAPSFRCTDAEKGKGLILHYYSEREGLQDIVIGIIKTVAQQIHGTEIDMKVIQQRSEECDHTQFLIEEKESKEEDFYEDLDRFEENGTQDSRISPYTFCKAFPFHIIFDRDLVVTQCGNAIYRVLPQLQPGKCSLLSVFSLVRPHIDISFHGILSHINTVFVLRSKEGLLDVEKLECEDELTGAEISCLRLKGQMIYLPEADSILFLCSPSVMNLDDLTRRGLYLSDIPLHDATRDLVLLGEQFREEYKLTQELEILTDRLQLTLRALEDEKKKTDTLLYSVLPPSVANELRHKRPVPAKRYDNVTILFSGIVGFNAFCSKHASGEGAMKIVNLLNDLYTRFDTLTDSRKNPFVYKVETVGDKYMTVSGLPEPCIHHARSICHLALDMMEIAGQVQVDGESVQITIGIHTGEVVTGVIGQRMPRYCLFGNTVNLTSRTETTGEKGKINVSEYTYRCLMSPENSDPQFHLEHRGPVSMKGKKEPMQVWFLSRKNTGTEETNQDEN
T1 sequence (P19686 1-690 partner): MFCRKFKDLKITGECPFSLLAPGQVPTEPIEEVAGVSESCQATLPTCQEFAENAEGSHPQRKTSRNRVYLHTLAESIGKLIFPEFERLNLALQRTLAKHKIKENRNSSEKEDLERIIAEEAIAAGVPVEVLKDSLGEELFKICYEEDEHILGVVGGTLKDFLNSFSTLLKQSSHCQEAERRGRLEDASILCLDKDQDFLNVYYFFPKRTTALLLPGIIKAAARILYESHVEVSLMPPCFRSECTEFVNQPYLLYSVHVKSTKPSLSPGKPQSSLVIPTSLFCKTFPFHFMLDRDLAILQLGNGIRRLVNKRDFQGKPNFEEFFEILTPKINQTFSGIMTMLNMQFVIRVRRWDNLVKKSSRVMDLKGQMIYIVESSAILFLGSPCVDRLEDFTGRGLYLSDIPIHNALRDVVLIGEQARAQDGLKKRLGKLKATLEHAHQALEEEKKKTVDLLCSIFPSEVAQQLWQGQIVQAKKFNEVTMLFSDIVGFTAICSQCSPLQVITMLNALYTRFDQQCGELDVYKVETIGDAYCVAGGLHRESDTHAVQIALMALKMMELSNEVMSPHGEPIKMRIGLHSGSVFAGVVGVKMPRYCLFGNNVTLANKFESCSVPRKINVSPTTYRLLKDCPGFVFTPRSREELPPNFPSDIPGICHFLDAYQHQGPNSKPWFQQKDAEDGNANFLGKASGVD
The experiment in a line: sGC-activating activity in the CHO reporter cell in vitro. It is filed as cell-based. As for the experimental part:
The cellular action of the compounds according to the invention is determined at a recombinant guanylate cyclase reporter cell line, as described in F. Wunder et al., Anal. Biochem. 339, 104-112 (2005).

For a further assay, the system named is saphenous artery rings. Kind of assay: Vasorelaxant effect in vitro (phenylephrine-contracted artery rings). On the set-up: species or system Rabbits. Particulars: concentration reducing phenylephrine-induced contraction by 50%. As for the experimental part: Rabbits are anesthetized and sacrificed by intravenous injection of thiopental sodium (about 50 mg/kg) and exsanguinated. The saphenous artery is removed and divided into rings 3 mm wide. The rings are mounted singly on in each case a pair of triangular hooks open at the end and made of 0.3 mm-thick special wire (Remanium®). Each ring is placed under an initial tension in 5 ml organ baths with Krebs-Henseleit solution which is at 37° C., is gassed with carbogen and has the following composition: NaCl 119 mM; KCl 4.8 mM; CaCl2×2H2O 1 mM; MgSO4×7H2O 1.4 mM; KH2PO4 1.2 mM; NaHCO3 25 mM; glucose 10 mM; bovine serum albumin 0.001%. The force of contraction is detected with Statham UC2 cells, amplified and digitized via A/D converters (DAS-1802 HC, Keithley Instruments, Munich) and recorded in parallel on chart recorders. Contractions are induced by addition of phenylephrine.
After several (generally 4) control cycles, the substance to be investigated is added in each further run in increasing dosage, and the level of the contraction achieved under the influence of the test substance is compared with the level of the contraction reached in the last preceding run. The concentration necessary to reduce the contraction reached in the preceding control by 50% is calculated from this (IC50). The standard application volume is 5 μl. The proportion of DMSO in the bath solution corresponds to 0.1%.

The target in assay [2] is T2, soluble guanylate cyclase (sGC) (Rattus norvegicus, UniProt P20595).
T2 construct: made in house; host or cells: baculovirus/Sf9 insect cells
T2 sequence (P20595 1-619): T1 sequence (P20595 1-619)
T2 sequence (P19686 1-690 partner): T1 sequence (P19686 1-690 partner)
The experiment in a line: Activating action at the sGC enzyme in vitro (PPi detection, luciferase). It is filed as biochemical. Particulars: for EC50: read-out: EC50 (concentration at 50% of maximum efficacy), activating action at the sGC enzyme. On the procedure:
Soluble guanylate cyclase (sGC) converts on stimulation GTP into cGMP and pyrophosphate (PPi). PPi is detected with the aid of the assay described below. The signal produced in the assay increases as the reaction progresses and serves as a measure of the sGC enzyme activity under the given stimulation.
To carry out the assay, 29 μl of enzyme solution [0-10 nM soluble guanylate cyclase (prepared according to Honicka et al., J. Mol. Med. 77, 14-23 (1999)) in 50 mM TEA, 2 mM MgCl2, 0.1% BSA (fraction V), 0.005% Brij®, pH 7.5] are initially introduced into a microplate, and 1 μl of the substance to be tested (as a serially diluted solution in DMSO) is added. The mixture is incubated at room temperature for 10 min. Then 20 μl of detection mix [1.2 nM Firefly Luciferase (Photinus pyralis luciferase, Promega), 29 μM dehydroluciferin (prepared according to Bitler & McElroy, Arch. Biochem. Biophys. 72, 358 (1957)), 122 μM luciferin (Promega), 153 μM ATP (Sigma) and 0.4 mM DTT (Sigma) in 50 mM TEA, 2 mM MgCl2, 0.1% BSA (fraction V), 0.005% Brij®, pH 7.5] are added. The enzyme reaction is started by adding 20 μl of substrate solution [1.25 mM guanosine 5′-triphosphate (Sigma) in 50 mM TEA, 2 mM MgCl2, 0.1% BSA (fraction V), 0.005% Brij®, pH 7.5] and measured continuously in a luminometer. The extent of the stimulation by the substance to be tested can be determined relative to the signal of the unstimulated reaction.
The activation of heme-free guanylate cyclase is examined by addition of 25 μM of 1H-1,2,4-oxadiazolo[4,3-a]quinoxalin-1-one (ODQ) to the enzyme solution and subsequent incubation for 30 minutes and compared to the stimulation of the native enzyme.

Turning to `CC1(C(=O)O)Cc2cccc(NC(=O)C(c3ccc(CN4N=C(c5ccccc5)OCC4=O)cc3)C3CCCC3)c2C1` (single isomer, unassigned) [Example 46, 4-[(Cyclopentyl{4-[(5-oxo-2-phenyl-5,6-dihydro-4H-1,3,4-oxadiazin-4-yl)methyl]phenyl}-acetyl)amino]-2-methyl-2,3-dihydro-1H-indene-2-carboxylic acid], the “MEC (minimum effective concentration), sGC-activating activity in the CHO reporter cell” value (“MEC … in the CHO reporter cell” below) in assay [1] worked out at 3 nM. Also, in the assay on saphenous artery rings (Oryctolagus cuniculus), the IC50 stood at 110 nM. In addition, in assay [2], the “MEC (minimum effective concentration), activating action at the sGC enzyme” value (“MEC … at the sGC enzyme” below) is given as 4.1 nM and the EC50 is 130 nM.
Turning to `CCC(C)C(C(=O)Nc1cccc(CCC(=O)O)c1C)c1ccc(CN2N=C(c3ccccc3)OCC2=O)cc1` (single isomer, unassigned) [Example 77, 3-{2-Methyl-3-[(3-methyl-2-{4-[(5-oxo-2-phenyl-5,6-dihydro-4H-1,3,4-oxadiazin-4-yl)methyl]phenyl}pentanoyl)amino]phenyl}propanoic acid], the “MEC … in the CHO reporter cell” value in assay [1] came out at 1 nM. Moreover, it took 625 nM to reach half-maximal inhibition with saphenous artery rings (Oryctolagus cuniculus) (IC50). For the same molecule, in assay [2], the “MEC … at the sGC enzyme” value was found to be 0.4 nM and the EC50 was 24 nM.
For `CCC(C)C(C(=O)Nc1cccc2c1CC(C)(C(=O)O)C2)c1ccc(CN2N=C(c3ccccc3)OCC2=O)cc1` (single isomer, unassigned) [Example 86, 2-Methyl-4-[(3-methyl-2-{4-[(5-oxo-2-phenyl-5,6-dihydro-4H-1,3,4-oxadiazin-4-yl)methyl]-phenyl}pentanoyl)amino]-2,3-dihydro-1H-indene-2-carboxylic acid], the “MEC … in the CHO reporter cell” value in assay [1] is 1 nM. Inhibition with saphenous artery rings (Oryctolagus cuniculus) was half-maximal at 180 nM (IC50). In assay [2], the “MEC … at the sGC enzyme” value is reported as 1.4 nM and the EC50 stood at 73 nM.
On the same counts, the results for `Cc1c(CCC(=O)O)cccc1NC(=O)C(c1ccc(CN2N=C(c3ccccc3)OCC2=O)cc1)C1CCCC1` (single isomer, unassigned) [Example 115, 3-{3-[(cyclopcntyl{4-[(5-oxo-2-phcnyl-5,6-dihydro-4H-1,3,4-oxadiazin-4-yl)mcthyl]phcnyl}acetyl)amino]-2-mcthylphcnyl}propanoic acid] are 3 nM, 163 nM, 1.6 nM and 40 nM.
Turning to `O=C(O)C1Cc2cccc(NC(=O)C(c3ccc(CN4N=C(c5ccccc5)OCC4=O)cc3)C3CCCC3)c2C1` (single isomer, unassigned) [Example 126, 4-[(cyclopcntyl{4-[(5-oxo-2-phcnyl-5,6-dihydro-4H-1,3,4-oxadiazin-4-yl)mcthyl]phcnyl}acetyl)amino]-2,3-dihydro-1H-indenc-2-carboxylic acid], the “MEC … in the CHO reporter cell” value in assay [1] stood at 30 nM. The molecule further came in with an IC50 in the assay with saphenous artery rings (Oryctolagus cuniculus) of 145 nM. For the same molecule, in assay [2], the “MEC … at the sGC enzyme” value stood at 10 nM and the EC50 turned out to be 320 nM.
On the same counts, the results for `CC(C)(Cc1cccc(NC(=O)C(c2ccc(Cn3nc(-c4ccccc4)ccc3=O)cc2)C2CCCC2)c1)C(=O)O` (single isomer, unassigned) [Example 138, 3-{3-[(cyclopentyl{4-[(6-oxo-3-phenylpyridazin-1(6H)-yl)methyl]phenyl}acetyl)amino]phenyl}-2,2-dimethylpropanoic acid] are 10 nM, 52 nM, 5.1 nM and 330 nM.
As to `CC(C(C(=O)Nc1cccc(CC2(C(=O)O)CC2)c1)c1ccc(CN2N=C(c3ccccc3)OCC2=O)cc1)C(F)(F)F` (single isomer, unassigned) [Example 164, 1-{3-[(4,4,4-trifluoro-3-methyl-2-{4-[(5-oxo-2-phenyl-5,6-dihydro-4H-1,3,4-oxadiazin-4-yl)methyl]phenyl}-butanoyl)amino]benzyl}cyclopropanecarboxylic acid], the “MEC … in the CHO reporter cell” value in assay [1] came out at 0.3 nM. The IC50 with saphenous artery rings was found to be 26 nM. Further, in assay [2], the “MEC … at the sGC enzyme” value came out at 0.5 nM and the EC50 was determined as 6.1 nM.
Consider `CCC(C)C(C(=O)Nc1cccc(CC(C)(C)C(=O)O)c1)c1ccc(CN2N=C(c3ccccc3)OCC2=O)cc1` (centres unmarked) [Example 143, 2,2-dimethyl-3-{3-[(3-methyl-2-{4-[(5-oxo-2-phenyl-5,6-dihydro-4H-1,3,4-oxadiazin-4-yl)methyl]phenyl}-pentanoyl)amino]phenyl}propanoic acid], for which, in assay [1], the “MEC … in the CHO reporter cell” value was determined as 3 nM. This molecule returned an IC50 in the assay on saphenous artery rings (Oryctolagus cuniculus) of 345 nM.
`CC(C(C(=O)Nc1cc(CCC(=O)O)ccc1F)c1ccc(CN2N=C(c3ccccc3)OCC2=O)cc1)C(F)(F)F` (centres unmarked) [Example 185, 3-{4-fluoro-3-[(4,4,4-trifluoro-3-methyl-2-{4-[(5-oxo-2-phenyl-5,6-dihydro-4H-1,3,4-oxadiazin-4-yl)methyl]-phenyl}butanoyl)amino]phenyl}propanoic acid]: in assay [1], the “MEC … in the CHO reporter cell” value was found to be 0.3 nM. Further, the IC50 in the assay on saphenous artery rings (Oryctolagus cuniculus) is 64 nM.
